Assay results taken from patent US9012166B2, “Method for assaying histone methylation enzyme activity” (Kyushu Institute of Technology, priority 2010, dated 2015).

Tests used:
Type in all cases: biochemical
trypsin [1] = test: Mixing assay of substrate compound with peptidase (trypsin), AMC fluorescence; details: 1,000 μM BocLys(Me)nMCA and trypsin; λex 390 nm, λem 460 nm
Experimental: (§1) Distilled water was added to 10 μL of 2×HMT buffer (100 mM Tris-HCl (pH 8.5), 20 mM MgCl2, 40 mM KCl, 20 mM 2-mercaptoethanol, 500 mM sucrose) and 1 μL of a BocLysMCA solution to adjust the total volume to 20 μL. To the resultant solution was added 30 μL of a peptidase solution (20 mg/mL trypsin or 20 mAU/mL lysyl endopeptidase), which was then mixed and incubated at 37° C. for 15 minutes. Then, the fluorescence intensity of the solution was measured at an excitation wavelength (λex) of 390 nm and a fluorescence wavelength (λem) of 460 nm. The wavelength is a wavelength for detecting AMC (7-amino-4-methylcoumarin) released by the cleavage of the amide bond between Lys and MCA of BocLysMCA. The fluorescence intensity of AMC was similarly measured by performing a mixing assay by the same method as the above method except for using monomethylated BocLysMCA (i.e., “BocLys(Me)MCA”), dimethylated BocLysMCA (i.e., “BocLys(Me)2MCA”), or trimethylated BocLysMCA (i.e., “BocLys(Me)3MCA”) in place of BocLysMCA.

lysyl endopeptidase [2] = biological target: T1, lysyl endopeptidase (Achromobacter lyticus, UniProt P15636); test: Mixing assay of substrate compound with peptidase (lysyl endopeptidase), AMC fluorescence; details: 1,000 μM BocLys(Me)nMCA and lysyl endopeptidase; λex 390 nm, λem 460 nm
Experimental: as §1

trypsin [3] = test: LC/MS analysis of reaction between substrate compound and trypsin; details: Example 3; 37° C., 15 minutes
Experimental: (§2) Distilled water was added to 10 μL of 2×HMT buffer (100 mM Tris-HCl (pH 8.5), 20 mM MgCl2, 40 mM KCl, 20 mM 2-mercaptoethanol, 500 mM sucrose) and 1 μL of a BocLysMCA solution to adjust the total volume to 20 μL. To the resultant solution was added 30 μL of a peptidase solution (20 mg/mL trypsin or 20 mAU/mL lysyl endopeptidase), which was then mixed and incubated at 37° C. for 15 minutes. Then, the solution was applied to a liquid chromatograph mass spectrometer (LC/MS) for analysis. Analysis was performed by the same method as that for the above analysis except for using monomethylated BocLysMCA (i.e., “BocLys(Me)MCA”), dimethylated BocLysMCA (i.e., “BocLys(Me)2MCA”), or trimethylated BocLysMCA (i.e., “BocLys(Me)3MCA”) in place of BocLysMCA. Analysis was also carried out by the same method except for using, in place of the above-described peptidase solution, an equal volume of distilled water.

lysyl endopeptidase [4] = biological target: T1, lysyl endopeptidase; test: LC/MS analysis of reaction between substrate compound and lysyl endopeptidase; details: Example 3; 37° C., 15 minutes
Experimental: as §2

G9a (GST-mG9a) = biological target: T2, G9a (GST-mG9a) (Mus musculus, UniProt Q9Z148); test: Assay for measuring histone methyltransferase activity using peptidyl MCA, inhibitor evaluation with G9a; details: Example 9; Ac-histone H3 (1-9)-MCA; AMC fluorescence λex 390 nm/λem 460 nm; FIG. 19; read-out: IC50 for G9a
T2 sequence (Q9Z148 1-1263): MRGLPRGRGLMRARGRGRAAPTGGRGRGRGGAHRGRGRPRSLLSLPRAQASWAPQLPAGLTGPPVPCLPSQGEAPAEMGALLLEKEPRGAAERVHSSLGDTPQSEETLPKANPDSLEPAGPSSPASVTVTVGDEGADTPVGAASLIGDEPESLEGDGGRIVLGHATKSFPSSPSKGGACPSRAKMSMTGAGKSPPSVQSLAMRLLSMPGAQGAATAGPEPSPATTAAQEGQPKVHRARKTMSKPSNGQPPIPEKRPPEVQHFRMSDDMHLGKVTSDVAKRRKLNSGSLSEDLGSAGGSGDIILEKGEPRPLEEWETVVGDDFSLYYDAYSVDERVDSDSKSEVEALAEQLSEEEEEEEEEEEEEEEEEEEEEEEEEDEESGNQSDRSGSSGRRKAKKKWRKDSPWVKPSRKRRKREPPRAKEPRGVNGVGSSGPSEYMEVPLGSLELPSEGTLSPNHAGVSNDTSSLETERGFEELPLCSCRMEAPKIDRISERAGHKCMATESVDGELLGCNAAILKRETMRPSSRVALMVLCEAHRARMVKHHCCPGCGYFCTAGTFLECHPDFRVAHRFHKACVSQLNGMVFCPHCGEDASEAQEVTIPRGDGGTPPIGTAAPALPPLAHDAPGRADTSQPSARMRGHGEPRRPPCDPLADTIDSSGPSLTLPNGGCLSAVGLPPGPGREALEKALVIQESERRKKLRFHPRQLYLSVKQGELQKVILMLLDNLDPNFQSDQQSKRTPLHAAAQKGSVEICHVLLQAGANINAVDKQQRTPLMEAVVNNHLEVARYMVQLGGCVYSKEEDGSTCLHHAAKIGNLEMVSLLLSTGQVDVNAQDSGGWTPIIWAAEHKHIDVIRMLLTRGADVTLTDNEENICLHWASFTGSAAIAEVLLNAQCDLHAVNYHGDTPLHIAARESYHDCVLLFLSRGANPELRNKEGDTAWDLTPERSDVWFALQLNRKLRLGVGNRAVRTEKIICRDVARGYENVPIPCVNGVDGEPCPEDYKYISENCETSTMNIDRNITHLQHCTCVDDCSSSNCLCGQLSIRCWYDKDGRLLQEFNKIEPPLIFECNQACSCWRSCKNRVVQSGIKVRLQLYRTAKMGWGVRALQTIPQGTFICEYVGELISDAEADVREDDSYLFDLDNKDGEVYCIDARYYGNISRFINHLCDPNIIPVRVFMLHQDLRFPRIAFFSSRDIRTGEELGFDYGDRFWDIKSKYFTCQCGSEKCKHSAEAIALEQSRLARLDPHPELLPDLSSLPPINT
Experimental: When G9a was adopted as a histone methyltransferase, the following method was used. 10 μL of 2×HMT buffer (100 mM Tris-HCl (pH 8.5), 20 mM MgCl2, 40 mM KCl, 20 mM 2-mercaptoethanol, 500 mM sucrose), 0.4 μL of a BSA solution (150 μg/mL), 2 μL of GST-mG9a (0, 0.5 μg/μL), 1 μL of gliotoxin (any of various concentrations) and 2.6 μL of distilled water were mixed and then incubated at room temperature for 1 hour. Then, 2 μL of SAM (10 mM) and 2 μL of a peptidyl MCA (Ac-histone H3 (1-9)-MCA) solution (0.6 mM) were added thereto, which was then incubated at 37° C. for 1 hour. Thereafter, 30 μL of a trypsin solution (20 mg/mL) was added thereto, followed by incubation at 37° C. for 15 minutes. Then, the fluorescence intensity of the solution was measured at an excitation wavelength (λex) of 390 nm and a fluorescence wavelength (λem) of 460 nm. The final concentration of GST-mG9a during the measurement of fluorescence intensity was 0.05 μg/μL. The results of the assay for measuring histone methyltransferase activity are shown in the middle panel of FIG. 18.
The rate of the inhibition of methylation by gliotoxin was calculated from the results in the left panel and the middle panel of FIG. 18. Specifically, the value (%) was calculated which was obtained by dividing “a value obtained by subtracting “the fluorescence intensity of AMC when peptidase was added but gliotoxin was not added” from “the fluorescence intensity of AMC when both peptidase and gliotoxin were added”” by “a value obtained by subtracting “the fluorescence intensity of AMC when peptidase was added but gliotoxin was not added” from “the fluorescence intensity of AMC when no peptidase or gliotoxin was added”” and multiplying the resultant value by 100. The rate (%) of the inhibition of methylation by gliotoxin is shown in the right panel of FIG. 18.
Specifically, the assay for measuring histone methyltransferase activity was carried out by the same method as the method using G9a […] in Example 8 except for using S-Adenosyl-L-homocysteine (SAH) in place of gliotoxin. SAH is a by-product of the methylation reaction and is known to inhibit histone methyltransferase in a negative feedback manner. […] The rate (%) of the inhibition of methylation by SAH was calculated from the results in the left panel of FIG. 19. The results are shown in the right panel of FIG. 19.
When G9a was adopted as a histone methyltransferase, the following method was used. […] Then, the fluorescence intensity of the solution was measured at an excitation wavelength (λex) of 330 nm and a fluorescence wavelength (λem) of 380 nm or at an excitation wavelength (λex) of 390 nm and a fluorescence wavelength (λem) of 460 nm. The final concentration of GST-mG9a during the measurement of fluorescence intensity was 0 μg/μL or 0.05 μg/μL.

T1 sequence (P15636 206-473 limits assumed, species assumed): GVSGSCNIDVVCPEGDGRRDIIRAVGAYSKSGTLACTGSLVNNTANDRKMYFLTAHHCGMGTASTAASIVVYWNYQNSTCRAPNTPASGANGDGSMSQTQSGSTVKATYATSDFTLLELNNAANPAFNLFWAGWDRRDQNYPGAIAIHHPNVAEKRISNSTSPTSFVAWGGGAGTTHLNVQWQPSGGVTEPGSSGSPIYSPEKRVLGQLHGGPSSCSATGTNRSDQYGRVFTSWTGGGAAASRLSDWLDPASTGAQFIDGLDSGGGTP

Row | Compound | fluorescence intensity of AMC when the fluorescence intensity for BocLysMCA was set to 100% (trypsin [1]) [%] | fluorescence intensity of AMC when the fluorescence intensity for BocLysMCA was set to 100% (lysyl endopeptidase [2]) [%] | hydrolysis by trypsin (LC/MS peaks) (trypsin [3]) | hydrolysis by lysyl endopeptidase (LC/MS peaks) (lysyl endopeptidase [4]) | IC50 (G9a (GST-mG9a)) [µM]
1 | Cc1cc(=O)oc2cc(NC(=O)[C@H](CCCCN(C)C)NC(=O)OC(C)(C)C)ccc12 [BocLys(Me)2MCA, dimethylated BocLysMCA] | 0.12 | 0.053 | almost no occurrence of hydrolysis | almost no occurrence of hydrolysis | 
2 | Cc1cc(=O)oc2cc(NC(=O)[C@H](CCCC[N+](C)(C)C)NC(=O)OC(C)(C)C)ccc12 [BocLys(Me)3MCA, trimethylated BocLysMCA] | 0.24 | 0.25 | almost no occurrence of hydrolysis | almost no occurrence of hydrolysis | 
3 | CNCCCC[C@H](NC(=O)OC(C)(C)C)C(=O)Nc1ccc2c(C)cc(=O)oc2c1 [BocLys(Me)MCA, monomethylated BocLysMCA] | 2.7 | 0.096 | almost no occurrence of hydrolysis | almost no occurrence of hydrolysis | 
4 | Nc1ncnc2c1ncn2[C@@H]1O[C@H](CSCC[C@H](N)C(=O)O)[C@@H](O)[C@H]1O [SAH, S-Adenosyl-L-homocysteine] |  |  |  |  | 490
